Earlier results on 18 compounds are cited in patent US9386793B2, “Compositions and methods for treating obesity and related disorders by characterizing and restoring mammalian bacterial microbiota” (New York University, priority 2010, dated 2016).

In one series the test system is Clostridium cocleatum. More on the design: key: + facilitates growth; w weak growth promotion; +/− growth variable dependent on strain; − no growth effect. The settings on record: substrate for fermentation.
A further series deals with Holdemania. More on the design: key: + facilitates growth; w weak growth promotion; +/− growth variable dependent on strain; − no growth effect. Particulars: substrate for fermentation.
In another series the test system is Sporacetegenium. More on the design: key: + facilitates growth; w weak growth promotion; +/− growth variable dependent on strain; − no growth effect. The settings on record: substrate for fermentation.
Another series concerns Johnsonella. Details: key: + facilitates growth; w weak growth promotion; +/− growth variable dependent on strain; − no growth effect. The settings on record: substrate for fermentation.
The subject of another series is Coprobacillus. More on the design: key: + facilitates growth; w weak growth promotion; +/− growth variable dependent on strain; − no growth effect. Particulars: substrate for fermentation.
The test system of a further series is Oscillibacter. Details: key: + facilitates growth; w weak growth promotion; +/− growth variable dependent on strain; − no growth effect. Particulars: substrate for fermentation.
In series [1] the test system is Coprobacillus, Sporacetigenium, Holdemania, or Clostridium cocleatum. Particulars: but not of Johnsonella and Oscillibacter.

Take Inulin: the “growth of Clostridium cocleatum” value with Clostridium cocleatum is “+”.

`O=C[C@H](O)[C@H](O)[C@H](O)CO` [Ribose]: the “growth of Holdemania” value with Holdemania is “w”. Further, the “growth of Sporacetegenium” value in the series on Sporacetegenium is on record as “+/−”. Moreover, the “growth of Johnsonella” value with Johnsonella is on record as “−”. Besides, in the series on Coprobacillus, the “growth of Coprobacillus” value is “−”. The “growth of Clostridium cocleatum” value with Clostridium cocleatum is “−”. Further, in the series on Oscillibacter, the “growth of Oscillibacter” value was “+”.

Take `O=C[C@H](O)[C@@H](O)[C@H](O[C@@H]1O[C@H](CO)[C@@H](O)[C@H](O)[C@H]1O)[C@H](O)CO` [Cellobiose]: in the series with Holdemania, the “growth of Holdemania” value was “w”. In addition, the “growth of Sporacetegenium” value in the series on Sporacetegenium was “w”. Besides, the “growth of Johnsonella” value in the series on Johnsonella was “−”. In the series on Coprobacillus, the “growth of Coprobacillus” value is on record as “+”. Also, in the series on Clostridium cocleatum, the “growth of Clostridium cocleatum” value is listed as “+”. In addition, in series [1], the “growth and metabolic activity of genera (as follows from Table 1)” value (shortened to “growth and metabolic activity of genera”) was “stimulate growth and metabolic activity of two or more genera”. The “growth of Oscillibacter” value in the series on Oscillibacter is “−”.

With `OC[C@H]1O[C@H](O[C@H]2O[C@H](CO)[C@@H](O)[C@H](O)[C@H]2O)[C@H](O)[C@@H](O)[C@@H]1O` [Trehalose], the “growth of Holdemania” value in the series with Holdemania is recorded as “w”. Moreover, the “growth of Sporacetegenium” value in the series with Sporacetegenium was “w”. Further, the “growth of Johnsonella” value in the series with Johnsonella was “−”. Further, the “growth of Coprobacillus” value with Coprobacillus is “+”. In addition, the “growth of Clostridium cocleatum” value with Clostridium cocleatum is recorded as “−”. For the same compound, the “growth and metabolic activity of genera” value in series [1] is “stimulate growth and metabolic activity of two or more genera”. Further, the “growth of Oscillibacter” value with Oscillibacter was “−”.

For `O=C[C@H](O)[C@@H](O)[C@@H](O)[C@H](O)CO` [Galactose], in the series on Sporacetegenium, the “growth of Sporacetegenium” value is recorded as “w”. Moreover, the “growth of Coprobacillus” value in the series with Coprobacillus is given as “+”. The “growth of Clostridium cocleatum” value with Clostridium cocleatum is “+”. Further, the “growth and metabolic activity of genera” value in series [1] was “stimulate growth and metabolic activity of two or more genera”. Further, the “growth of Oscillibacter” value in the series with Oscillibacter is reported as “−”.

Regarding `O=C[C@H](O)[C@@H](O)[C@H](O)CO` [Xylose], the “growth of Holdemania” value in the series with Holdemania was “w”. Besides, the “growth of Sporacetegenium” value in the series on Sporacetegenium is reported as “+”. Also, in the series on Johnsonella, the “growth of Johnsonella” value is listed as “−”. Also, the “growth of Coprobacillus” value with Coprobacillus is on record as “−”. For the same compound, the “growth of Clostridium cocleatum” value with Clostridium cocleatum is recorded as “−”. For the same compound, the “growth of Oscillibacter” value with Oscillibacter is “+”.

Consider `O=C[C@@H](O)[C@H](O)[C@H](O)CO` [D-arabinose], for which the “growth of Oscillibacter” value with Oscillibacter is reported as “−”.

Regarding `O=C(CO)[C@@H](O)[C@H](O)[C@H](O)CO` [Fructose], in the series on Holdemania, the “growth of Holdemania” value is given as “+”. The “growth of Sporacetegenium” value in the series on Sporacetegenium is on record as “+”. The “growth of Johnsonella” value with Johnsonella is “−”. Besides, the “growth of Coprobacillus” value with Coprobacillus was “+”. The “growth of Clostridium cocleatum” value in the series on Clostridium cocleatum is “+”. Besides, the “growth and metabolic activity of genera” value in series [1] is “stimulate growth and metabolic activity of two or more genera”. Moreover, the “growth of Oscillibacter” value with Oscillibacter is “−”.

As to `O=C[C@H](O)[C@@H](O)[C@@H](O)CO` [L-arabinose], the “growth of Oscillibacter” value in the series on Oscillibacter is reported as “+”.

Consider `OCc1ccccc1O[C@@H]1O[C@H](CO)[C@@H](O)[C@H](O)[C@H]1O` [Salicin], for which the “growth of Holdemania” value in the series with Holdemania is recorded as “+”. Also, in the series on Sporacetegenium, the “growth of Sporacetegenium” value is given as “−”. The “growth of Johnsonella” value in the series on Johnsonella is recorded as “−”. Also, the “growth of Coprobacillus” value with Coprobacillus is given as “+”. In addition, the “growth of Clostridium cocleatum” value in the series with Clostridium cocleatum was “w”. In addition, the “growth and metabolic activity of genera” value in series [1] is “stimulate growth and metabolic activity of two or more genera”. In the series with Oscillibacter, the “growth of Oscillibacter” value is given as “−”.

Consider `OC[C@H]1O[C@H](OC[C@H]2O[C@H](O[C@]3(CO)O[C@H](CO)[C@@H](O)[C@@H]3O)[C@H](O)[C@@H](O)[C@@H]2O)[C@H](O)[C@@H](O)[C@H]1O` [Raffinose], for which the “growth of Holdemania” value with Holdemania is given as “w”. The “growth of Sporacetegenium” value in the series with Sporacetegenium is on record as “w”. Further, the “growth of Johnsonella” value in the series on Johnsonella is given as “−”. Also, in the series with Coprobacillus, the “growth of Coprobacillus” value was “−”. For the same compound, the “growth of Clostridium cocleatum” value in the series with Clostridium cocleatum is “+”. In addition, the “growth and metabolic activity of genera” value in series [1] was “stimulate growth and metabolic activity of two or more genera”. In addition, the “growth of Oscillibacter” value in the series on Oscillibacter is “−”.

Take `O=C[C@@H](O)[C@H](O)[C@H](O)CO` [Arabinose]: in the series with Holdemania, the “growth of Holdemania” value was “w”. Also, the “growth of Sporacetegenium” value with Sporacetegenium is “+”. In the series on Johnsonella, the “growth of Johnsonella” value is listed as “−”. Besides, in the series with Coprobacillus, the “growth of Coprobacillus” value is given as “−”. Also, in the series with Clostridium cocleatum, the “growth of Clostridium cocleatum” value was “−”. For the same compound, the “growth of Oscillibacter” value in the series on Oscillibacter was “+/−^a”.

In the case of `OC[C@H]1O[C@H](O[C@H]2[C@H](O)[C@@H](O)[C@H](O)O[C@@H]2CO)[C@H](O)[C@@H](O)[C@@H]1O` [Maltose], the “growth of Holdemania” value with Holdemania is “+”. In addition, the “growth of Sporacetegenium” value in the series on Sporacetegenium was “+”. For the same compound, the “growth of Johnsonella” value in the series on Johnsonella is listed as “−”. In addition, the “growth of Coprobacillus” value in the series on Coprobacillus is given as “+”. Moreover, in the series on Clostridium cocleatum, the “growth of Clostridium cocleatum” value is given as “+”. For the same compound, the “growth and metabolic activity of genera” value in series [1] was “stimulate growth and metabolic activity of two or more genera”. The “growth of Oscillibacter” value with Oscillibacter is “−”.

On to `C[C@H](O)[C@H](O)[C@@H](O)[C@@H](O)C=O` [Rhamnose], for which the “growth of Holdemania” value in the series with Holdemania was “w”. Besides, the “growth of Sporacetegenium” value in the series with Sporacetegenium was “w”. In addition, the “growth of Johnsonella” value in the series on Johnsonella is reported as “−”. In addition, the “growth of Coprobacillus” value in the series with Coprobacillus is “−”. The “growth of Clostridium cocleatum” value with Clostridium cocleatum is recorded as “−”. Also, in the series with Oscillibacter, the “growth of Oscillibacter” value was “−”.

For the compound `OC[C@H]1O[C@@](CO)(O[C@H]2O[C@H](CO)[C@@H](O)[C@H](O)[C@H]2O)[C@@H](O)[C@@H]1O` [Sucrose], the “growth of Holdemania” value in the series with Holdemania is “+”. Besides, the “growth of Sporacetegenium” value in the series on Sporacetegenium was “w”. The “growth of Johnsonella” value in the series with Johnsonella was “−”. Also, the “growth of Coprobacillus” value with Coprobacillus is “+”. Besides, the “growth of Clostridium cocleatum” value in the series with Clostridium cocleatum is reported as “+”. Further, the “growth and metabolic activity of genera” value in series [1] was “stimulate growth and metabolic activity of two or more genera”. For the same compound, the “growth of Oscillibacter” value in the series with Oscillibacter is “−”.

In the case of `O=c1ccc2cc(O[C@@H]3O[C@H](CO)[C@@H](O)[C@H](O)[C@H]3O)c(O)cc2o1` [Esculin], the “growth of Holdemania” value in the series on Holdemania is recorded as “+”. The “growth of Johnsonella” value with Johnsonella was “−”. Moreover, the “growth of Coprobacillus” value with Coprobacillus is on record as “−”.

As for `OC[C@H]1O[C@@H](O[C@H]2[C@H](O)[C@@H](O)C(O)O[C@@H]2CO)[C@H](O)[C@@H](O)[C@H]1O` (stereo partly shown) [Lactose], in the series on Holdemania, the “growth of Holdemania” value is on record as “+”. Besides, the “growth of Sporacetegenium” value with Sporacetegenium is “w”. In addition, the “growth of Johnsonella” value in the series with Johnsonella is recorded as “−”. Also, the “growth of Coprobacillus” value with Coprobacillus is “+”. Also, the “growth of Clostridium cocleatum” value in the series with Clostridium cocleatum is “+”. For the same compound, the “growth and metabolic activity of genera” value in series [1] is “stimulate growth and metabolic activity of two or more genera”. In addition, the “growth of Oscillibacter” value in the series on Oscillibacter is “−”.

Take `OC[C@H]1O[C@H](OCC2O[C@@H](O)[C@H](O)[C@@H](O)[C@@H]2O)[C@H](O)[C@@H](O)[C@H]1O` (stereo partly shown) [Mellibiose]: the “growth of Holdemania” value with Holdemania is reported as “w”. The “growth of Sporacetegenium” value in the series on Sporacetegenium was “w”. Besides, in the series with Johnsonella, the “growth of Johnsonella” value is on record as “−”. In addition, the “growth of Clostridium cocleatum” value with Clostridium cocleatum is listed as “+”. The “growth and metabolic activity of genera” value in series [1] is “stimulate growth and metabolic activity of two or more genera”. Also, the “growth of Oscillibacter” value with Oscillibacter is listed as “−”.
